Measurements as given in paper PMC3365592 (European Journal of Medicinal Chemistry, 2012).

Target: T1, 5-HT1A receptors (Rattus norvegicus, UniProt P19327)
T1 sequence (P19327 1-422): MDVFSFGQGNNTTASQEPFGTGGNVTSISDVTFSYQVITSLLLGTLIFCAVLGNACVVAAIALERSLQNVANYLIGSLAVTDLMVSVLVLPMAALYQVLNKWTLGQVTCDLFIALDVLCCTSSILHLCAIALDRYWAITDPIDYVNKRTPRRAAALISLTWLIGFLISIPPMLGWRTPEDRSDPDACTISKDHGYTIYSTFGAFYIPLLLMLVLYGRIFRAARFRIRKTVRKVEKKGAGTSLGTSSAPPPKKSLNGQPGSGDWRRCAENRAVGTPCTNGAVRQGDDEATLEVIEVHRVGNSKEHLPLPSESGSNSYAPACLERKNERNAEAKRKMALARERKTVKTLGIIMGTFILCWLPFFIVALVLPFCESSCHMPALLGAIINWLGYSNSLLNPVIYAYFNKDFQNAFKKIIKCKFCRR
Experiment: not given
Details: read-out: 5-HT1A Ki ± SEM; cited from earlier work

| SMILES | Ki |
| --- | --- |
| CC1(C)CC(=O)N(CCCCN2CCN(c3ccc4ccccc4n3)CC2)C(=O)C1 [Compound 19] | 11 ± 2 nM |
| O=C1c2ccccc2C(=O)N1CCCCN1CCN(c2ccc3ccccc3n2)CC1 [Compound 13] | 39 nM |
| CC1CN(c2ccc3ccccc3n2)CCN1CCCN1C(=O)c2ccccc2C1=O (stereo not shown) [Compound 14] | 275 nM |
| CC1CN(c2ccc3ccccc3n2)CCN1CCCCN1C(=O)CCCC1=O (stereo not shown) [Compound 15] | 37 ± 6 nM |
| CC1CN(c2ccc3ccccc3n2)CCN1CCCCN1C(=O)CC(C)(C)CC1=O (stereo not shown) [Compound 18] | 15 ± 3 nM |
| CC1CN(c2ccc3ccccc3n2)CCN1CCCCN1C(=O)CC2(CCCC2)CC1=O (stereo not shown) [Compound 16] | 24 ± 3 nM |
| CC1CN(c2ccc3ccccc3n2)CCN1CCCCN1C(=O)c2ccccc2C1=O (stereo not shown) [Compound 12] | 13 nM |

Target: T1, 5-HT1A receptors
Experiment: 5-HT1A receptor binding experiments
Details: not given

| Ki | SMILES |
| --- | --- |
| 1100 ± 400 nM | O=C1CC2(CCCC2)CC(=O)N1CCCCN1CCN(c2ccc3cc([N+](=O)[O-])ccc3n2)CC1 [Compound 6, 8-{4-[4-(6-Nitro-quinolin-2-yl)-piperazin-1-yl]-butyl}-8-aza-spiro[4.5]decane-7,9-dione] |
| 711 ± 21 nM | CC1CN(c2ccc3cc([N+](=O)[O-])ccc3n2)CCN1CCCCN1C(=O)CCCC1=O (stereo not shown) [Compound 3, 1-{4-[2-Methyl-4-(6-nitroquinolin-2-yl)piperazin-1-ylo]butyl}piperidine-2,6-dione] |
| 1400 ± 100 nM | CC1(C)CC(=O)N(CCCCN2CCN(c3ccc4c(Cl)cccc4n3)CC2)C(=O)C1 [Compound 10, 1-{4-[4-(5-Chloroquinolin-2-yl)piperazin-1-yl]butyl}-4,4-di-methylopiperydine-2,6-dione] |
| 59000 ± 23100 nM | O=C1c2ccccc2C(=O)N1CCCCN1CCN(c2ccc3cc([N+](=O)[O-])ccc3n2)CC1 [Compound 9, 2-{4-[4-(6-Nitro-quinolin-2-yl)-piperazin-1-yl]-butyl}-isoindole-1,3-dione] |
| 10600 ± 3500 nM | O=C1CCCC(=O)N1CCCCN1CCN(c2ccc3cc([N+](=O)[O-])ccc3n2)CC1 [Compound 4, 1-{4-[4-(6-Nitro-quinolin-2-yl)-piperazin-1-yl]-butyl}-piperidine-2,6-dione] |
| 2100 ± 400 nM | CC1(C)CC(=O)N(CCCCN2CCN(c3ccc4cc([N+](=O)[O-])ccc4n3)CC2)C(=O)C1 [Compound 8, 4,4-Dimethyl-1-{4-[4-(6-nitro-quinolin-2-yl)-piperazin-1-yl]-butyl}-piperidine-2,6-dione] |
